According to BigSolDB 2.1:

Question: Which solubility (mole fraction) (in 1,4-dioxane, 288.15 K) does the source give for `O=C(O)[C@@H]1CSCN1` here?
Answer: 0.00035

Question: And the solubility (mole fraction) (in 1,4-dioxane, 293.15 K)?
Answer: 0.000384

Question: What about the solubility (mole fraction) (in 1,4-dioxane, 303.15 K) of the same compound?
Answer: 0.000477

Question: And the solubility (mole fraction) (in 1,4-dioxane, 313.15 K)?
Answer: 0.000589

Question: What about the solubility (mole fraction) (in 1,4-dioxane, 323.15 K) of the same compound?
Answer: 0.000708

Question: What about the solubility (mole fraction) (in acetone, 283.15 K) of the same compound?
Answer: 0.00018

Question: And the solubility (mole fraction) (in acetone, 293.15 K)?
Answer: 0.000298

Question: What about the solubility (mole fraction) (in acetone, 303.15 K) of the same compound?
Answer: 0.000537

Question: What about the solubility (mole fraction) (in acetone, 313.15 K) of the same compound?
Answer: 0.00135

Question: What about the solubility (mole fraction) (in acetone, 323.15 K) of the same compound?
Answer: 0.00343

Question: What about the solubility (mole fraction) (in acetonitrile, 283.15 K) of the same compound?
Answer: 2.2e-05

Question: And the solubility (mole fraction) (in acetonitrile, 293.15 K)?
Answer: 3e-05

Question: And the solubility (mole fraction) (in acetonitrile, 303.15 K)?
Answer: 4.8e-05

Question: What about the solubility (mole fraction) (in acetonitrile, 313.15 K) of the same compound?
Answer: 6.8e-05

Question: What about the solubility (mole fraction) (in acetonitrile, 323.15 K) of the same compound?
Answer: 9.1e-05

Question: What about the solubility (mole fraction) (in dichloromethane, 283.15 K) of the same compound?
Answer: 1.5e-05

Question: And the solubility (mole fraction) (in dichloromethane, 288.15 K)?
Answer: 5.1e-05

Question: What about the solubility (mole fraction) (in dichloromethane, 293.15 K) of the same compound?
Answer: 0.000134

Question: What about the solubility (mole fraction) (in dichloromethane, 298.15 K) of the same compound?
Answer: 0.000208

Question: And the solubility (mole fraction) (in dichloromethane, 303.15 K)?
Answer: 0.000292

Question: What about the solubility (mole fraction) (in ethanol, 283.15 K) of the same compound?
Answer: 9e-05

Question: What about the solubility (mole fraction) (in ethanol, 293.15 K) of the same compound?
Answer: 0.000125

Question: What about the solubility (mole fraction) (in ethanol, 303.15 K) of the same compound?
Answer: 0.00018

Question: And the solubility (mole fraction) (in ethanol, 313.15 K)?
Answer: 0.000254

Question: What about the solubility (mole fraction) (in ethanol, 323.15 K) of the same compound?
Answer: 0.000348

Question: And the solubility (mole fraction) (in ethyl acetate, 283.15 K)?
Answer: 2.3e-05

Question: And the solubility (mole fraction) (in ethyl acetate, 293.15 K)?
Answer: 7.2e-05

Question: What about the solubility (mole fraction) (in ethyl acetate, 303.15 K) of the same compound?
Answer: 0.000158

Question: What about the solubility (mole fraction) (in ethyl acetate, 313.15 K) of the same compound?
Answer: 0.000297

Question: What about the solubility (mole fraction) (in ethyl acetate, 323.15 K) of the same compound?
Answer: 0.000471

Question: And the solubility (mole fraction) (in isopropanol, 283.15 K)?
Answer: 3.7e-05

Question: What about the solubility (mole fraction) (in isopropanol, 293.15 K) of the same compound?
Answer: 6.8e-05

Question: And the solubility (mole fraction) (in isopropanol, 303.15 K)?
Answer: 9.8e-05

Question: And the solubility (mole fraction) (in isopropanol, 313.15 K)?
Answer: 0.000127

Question: What about the solubility (mole fraction) (in isopropanol, 323.15 K) of the same compound?
Answer: 0.00019

Question: And the solubility (mole fraction) (in methanol, 283.15 K)?
Answer: 5.5e-05

Question: What about the solubility (mole fraction) (in methanol, 293.15 K) of the same compound?
Answer: 7.4e-05

Question: And the solubility (mole fraction) (in methanol, 303.15 K)?
Answer: 0.000112

Question: And the solubility (mole fraction) (in methanol, 313.15 K)?
Answer: 0.000209

Question: And the solubility (mole fraction) (in methanol, 323.15 K)?
Answer: 0.000315

Question: And the solubility (mole fraction) (in water, 283.15 K)?
Answer: 0.00296

Question: What about the solubility (mole fraction) (in water, 293.15 K) of the same compound?
Answer: 0.00383

Question: And the solubility (mole fraction) (in water, 303.15 K)?
Answer: 0.00502

Question: What about the solubility (mole fraction) (in water, 313.15 K) of the same compound?
Answer: 0.0062

Question: And the solubility (mole fraction) (in water, 323.15 K)?
Answer: 0.00773
